Experimental data from the supplement of paper PMC10307832.

Columns and labels:
Experiment in all cases: relative viability (nuclei count vs DMSO), 5 days (fraction); higher = more cells survive
[1] = compound: C1CC2=C(C1)C=C(C=C2)OC3=NC(=C4C(=N3)N(C=N4)CC5=CC=C(C=C5)C6=CC=CC=C6)N[C@@H](CC7=CC=CC=C7)CO [QS11] + C[C@]1(O)C[C@@H](c2nc(-c3ccc4ccc(-c5ccccc5)nc4c3)c3c(N)nccn32)C1 [Linsitinib] (partner 1 µM)
In short: (§1)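 Nuclei were stained with Hoechst during a one-step fixation (final 0.05% Triton X-100, 1% formaldehyde, 1 ug/ml Hoechst) carried out 5 days after dosing, then counted on 4× images. The cells, lung cancer lines in 1536-well plates, had been dosed by pin tool the day after seeding with one drug alone or a fixed anchor-drug dose plus five library-drug doses (not always all listed) in √10 steps. Relative viability is the nuclei count in treated wells divided by that in vehicle wells, and each value is the median of duplicate plates.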

[2] = compound: C1CC2=C(C1)C=C(C=C2)OC3=NC(=C4C(=N3)N(C=N4)CC5=CC=C(C=C5)C6=CC=CC=C6)N[C@@H](CC7=CC=CC=C7)CO [QS11] + O=C(c1cc(Cc2n[nH]c(=O)c3ccccc23)ccc1F)N1CCN(C(=O)C2CC2)CC1 [Olaparib] (partner 8 µM)
In short: as §1

[3] = compound: C1CC2=C(C1)C=C(C=C2)OC3=NC(=C4C(=N3)N(C=N4)CC5=CC=C(C=C5)C6=CC=CC=C6)N[C@@H](CC7=CC=CC=C7)CO [QS11] + C[C@@H](Oc1cc(-c2cnn(C3CCNCC3)c2)cnc1N)c1c(Cl)ccc(F)c1Cl [Crizotinib] (partner 1 µM)
In short: as §1

[4] = compound: C1CC2=C(C1)C=C(C=C2)OC3=NC(=C4C(=N3)N(C=N4)CC5=CC=C(C=C5)C6=CC=CC=C6)N[C@@H](CC7=CC=CC=C7)CO [QS11] + Cc1nc(NC(=O)N2CCC[C@H]2C(N)=O)sc1-c1ccnc(C(C)(C)C(F)(F)F)c1 [Alpelisib] (partner 2 µM)
In short: as §1

| Cell Line | relative viability ([1]; first compound 0.08 µM) | relative viability ([1]; first compound 0.253 µM) | relative viability ([1]; first compound 0.8 µM) | relative viability ([1]; first compound 2.53 µM) | relative viability ([1]; first compound 8 µM) | relative viability ([2]; first compound 0.08 µM) | relative viability ([2]; first compound 0.253 µM) | relative viability ([2]; first compound 0.8 µM) | relative viability ([2]; first compound 2.53 µM) | relative viability ([2]; first compound 8 µM) | relative viability ([3]; first compound 0.08 µM) | relative viability ([3]; first compound 0.253 µM) | relative viability ([3]; first compound 0.8 µM) | relative viability ([3]; first compound 2.53 µM) | relative viability ([3]; first compound 8 µM) | relative viability ([4]; first compound 0.08 µM) | relative viability ([4]; first compound 0.253 µM) | relative viability ([4]; first compound 0.8 µM) | relative viability ([4]; first compound 2.53 µM) | relative viability ([4]; first compound 8 µM) |
| --- | --- | --- | --- | --- | --- | --- | --- | --- | --- | --- | --- | --- | --- | --- | --- | --- | --- | --- | --- | --- |
| LC-2-ad | 0.791 | 0.832 | 0.699 | 0.817 | 0.829 | 0.668 | 0.719 | 0.551 | 0.706 | 0.781 | 0.468 | 0.479 | 0.398 | 0.443 | 0.495 | 0.93 | 0.853 | 0.698 | 1.08 | 0.779 |
| HCC-78 | 0.517 | 0.528 | 0.463 | 0.579 | 0.514 | 0.665 | 1.02 | 0.83 | 0.859 | 0.806 | 0.326 | 0.342 | 0.289 | 0.325 | 0.331 | 0.411 | 0.31 | 0.401 | 0.43 | 0.321 |
| SW 1573 | 0.837 | 0.729 | 0.824 | 0.817 | 0.696 | 0.615 | 0.489 | 0.503 | 0.416 | 0.463 | 0.802 | 0.796 | 0.817 | 0.629 | 0.876 | 0.844 | 0.656 | 0.772 | 0.741 | 0.718 |
| NCI-H358 | 0.731 | 0.779 | 0.952 | 1.49 | 1.33 | 0.635 | 0.62 | 0.566 | 0.633 | 0.618 | 0.723 | 0.525 | 0.457 | 0.402 | 0.379 | 0.914 | 0.857 | 1.02 | 1.5 | 1.35 |
| ChaGo-K-1 | – | – | – | – | – | – | 0.448 | 0.352 | 0.397 | 0.387 | – | 1.24 | 1.26 | 0.957 | 1.23 | – | – | – | – | – |
| 201T | 1.01 | 1.01 | 0.847 | 1.01 | 0.888 | 0.876 | 1.05 | 0.699 | 0.898 | 0.718 | 1.04 | 1.07 | 0.778 | 1.03 | 0.947 | 1.02 | 1.07 | 0.92 | 1.08 | 0.949 |
| HCC-44 | 0.79 | 0.647 | 0.532 | 0.549 | 0.531 | 1.05 | 1.09 | 0.597 | 0.989 | 0.987 | 0.868 | 0.729 | 0.577 | 0.688 | 0.519 | 0.837 | 0.755 | 0.659 | 0.728 | 0.476 |
| EMC-BAC-2 | 0.825 | 0.826 | 0.728 | 0.815 | 0.73 | 0.461 | 0.492 | 0.464 | 0.492 | 0.44 | 0.892 | 0.75 | 0.529 | 0.741 | 0.541 | 0.802 | 0.698 | 0.887 | 0.759 | 0.594 |
| NCI-H2405 | 0.893 | 0.925 | 0.946 | 0.942 | 1.17 | 0.847 | 0.803 | 0.768 | 0.961 | 0.83 | 0.822 | 0.883 | 0.808 | 0.88 | 0.95 | 0.709 | 0.745 | 0.884 | 0.998 | 0.902 |
| NCI-H2342 | – | – | – | – | – | 0.352 | 0.395 | 0.494 | 0.479 | 0.441 | – | – | – | – | – | – | – | – | – | – |
| HOP-62 | 0.784 | 1.05 | 0.852 | 0.616 | 0.913 | 0.477 | 0.46 | 0.31 | 0.319 | 0.382 | 0.853 | 0.863 | 0.846 | 0.703 | 0.45 | 0.968 | 0.927 | 0.956 | 0.85 | 0.535 |
| NCI-H1651 | 1.12 | 0.987 | 0.813 | 0.939 | 0.581 | 0.168 | 0.202 | 0.171 | 0.195 | 0.162 | 0.888 | 0.95 | 0.79 | 0.903 | 0.899 | 1.06 | 1.1 | 0.822 | 0.896 | 0.713 |
| NCI-H2085 | 0.885 | 1.19 | 1.01 | 0.959 | 1.07 | 0.741 | 0.846 | 0.773 | 0.785 | 0.976 | 0.907 | 0.95 | 0.84 | 0.776 | 0.802 | 0.922 | 1 | 1.02 | 1.06 | 1.12 |
| NCI-H1395 | – | 1.01 | 1.17 | 1.16 | 1.18 | 0.464 | 0.463 | 0.446 | 0.468 | 0.472 | – | – | – | – | – | – | 1.2 | 1.12 | 0.912 | 1.53 |
| NCI-H2170 | – | – | – | – | – | 0.549 | 0.632 | 0.539 | 0.596 | 0.722 | 1.32 | 1.1 | 1.02 | 1.12 | 1.51 | 0.785 | 0.907 | 0.833 | 0.791 | 1.16 |
| NCI-H522 | – | – | – | – | – | 0.603 | 0.755 | 0.665 | 0.588 | 0.772 | – | – | – | – | – | – | – | – | – | – |
| NCI-H1648 | – | – | – | – | – | 0.812 | 0.413 | 0.727 | 0.77 | 1.09 | – | – | – | – | – | – | – | – | – | – |
| NCI-H1650 | – | – | – | – | – | 0.825 | 0.816 | 0.719 | 0.686 | 0.898 | 0.994 | 0.843 | 0.868 | 0.986 | 0.894 | – | – | – | – | – |
| NCI-H1563 | 1.16 | 1.3 | 1.26 | 1.34 | 1.32 | – | – | – | – | – | 0.836 | 0.937 | 0.925 | 0.86 | 0.814 | 0.902 | 0.931 | 1.02 | 0.831 | 0.749 |
| NCI-H1793 | 0.972 | 0.877 | 0.939 | 1.19 | 1.04 | 0.979 | 0.837 | 0.827 | 0.847 | 1.06 | – | – | – | – | – | 0.719 | 0.645 | 0.637 | 0.827 | 0.791 |
